Results taken from PMC7914897, “Cytotoxic Potential of a-Azepano- and 3-Amino-3,4-SeCo-Triterpenoids” (International Journal of Molecular Sciences, 2021).
Where two headings read alike, the source gives them in different places.

How the values were obtained:
[1] = test system: NCI/ADR-RES (Ovarian cancer); assay: NCI-60 screen (SRB, 48 h); details: Homo sapiens
[2] = test system: SK-MEL-2 (Melanoma); assay: NCI-60 screen (SRB, 48 h); details: Homo sapiens
[3] = test system: CNS cancer subpanel; assay: NCI-60 screen, subpanel; details: Homo sapiens
[4] = test system: NCI-H226 (NSC lung cancer); assay: NCI-60 screen (SRB, 48 h); details: Homo sapiens
[5] = test system: OVCAR-4 (Ovarian cancer); assay: NCI-60 screen (SRB, 48 h); type: cell-based; details: Homo sapiens
[6] = test system: panel of approximately 60 cancer cell lines; assay: NCI-60 screen (SRB, 48 h), full panel
[7] = test system: HS 578T (Breast cancer); assay: NCI-60 screen (SRB, 48 h); details: Homo sapiens
[8] = test system: NCI-H23 (NSC lung cancer); assay: NCI-60 screen (SRB, 48 h); details: Homo sapiens
[9] = test system: M14 (Melanoma); assay: NCI-60 screen (SRB, 48 h); details: Homo sapiens
[10] = test system: HCC-2998 (Colon cancer); assay: NCI-60 screen (SRB, 48 h); details: Homo sapiens
[11] = test system: HOP-92 (NSC lung cancer); assay: NCI-60 screen (SRB, 48 h); details: Homo sapiens
[12] = test system: MDA-MB-435 (Melanoma); assay: NCI-60 screen (SRB, 48 h); type: cell-based
[13] = test system: HCT-15 (Colon cancer); assay: NCI-60 screen (SRB, 48 h); details: Homo sapiens
[14] = test system: K-562 (Leukemia); assay: NCI-60 screen (SRB, 48 h); details: Homo sapiens
[15] = test system: MDA-MB-31/ATCC (Breast cancer); assay: NCI-60 screen (SRB, 48 h); details: Homo sapiens
[16] = test system: SN12C (Renal cancer); assay: NCI-60 screen (SRB, 48 h); details: Homo sapiens
[17] = test system: OVCAR-8 (Ovarian cancer); assay: NCI-60 screen (SRB, 48 h); details: Homo sapiens
[18] = test system: OVCAR-5 (Ovarian cancer); assay: NCI-60 screen (SRB, 48 h); details: Homo sapiens
[19] = test system: Leukemia subpanel; assay: cells; details: Homo sapiens
[20] = test system: LOX IMVI (Melanoma); assay: NCI-60 screen (SRB, 48 h); type: cell-based; details: Homo sapiens
[21] = test system: U251 (CNS cancer); assay: NCI-60 screen (SRB, 48 h); details: Homo sapiens
[22] = test system: UACC-257 (Melanoma); assay: NCI-60 screen (SRB, 48 h); details: Homo sapiens
[23] = test system: MALME-3M (Melanoma); assay: NCI-60 screen (SRB, 48 h); details: Homo sapiens
[24] = test system: SF-539 (CNS cancer); assay: NCI-60 screen (SRB, 48 h); details: Homo sapiens
[25] = test system: SK-MEL-28 (Melanoma); assay: NCI-60 screen (SRB, 48 h); details: Homo sapiens
[26] = test system: SK-OV-3 (Ovarian cancer); assay: NCI-60 screen (SRB, 48 h); details: Homo sapiens

`C=C(C)[C@@H]1CC[C@]2(C)[C@H](C=CC3=C4C[C@@](C)(CO)CC[C@]4(C)CC[C@]32C)[C@@]1(C)CCCN` [Compound 20] showed a GI50 [1] of 1740 nM, an IC (TGI) ([1]; 48 h, read-out: TGI) of 3.37 µM and a CC50 ([1]; read-out: LC50) of 6.54 µM. For the same molecule, the GI50 ([2]; SK-MEL-2) was 1920 nM, the IC (TGI) ([2]; SK-MEL-2, 48 h, read-out: TGI) was 3.58 µM and the CC50 ([2]; SK-MEL-2, read-out: LC50) was 6.66 µM. The IC (TGI) ([3]; 48 h, read-out: TGI MG_MID) was 3.18 µM, the GI50 ([3]; read-out: GI50 MG_MID) was 1670 nM and the CC50 ([3]; read-out: LC50 MG_MID) was 6.04 µM. It also gave a GI50 ([4]; NCI-H226) of 1850 nM, an IC (TGI) ([4]; NCI-H226, 48 h, read-out: TGI) of 3.66 µM and an IC (TGI) ([5]; OVCAR-4, 48 h) of 3.09 µM. For the same molecule, the GI50 ([5]; OVCAR-4, read-out: GI50) was 1530 nM, the CC50 ([5]; OVCAR-4, read-out: LC50 (the source's name)) was 6.23 µM and the “Positive Cytostatic Effect (cell lines with percent growth 0 to 50 / total)” value ([6]; 1 dose 10 µM) was 8/60. For the same molecule, the “Positive Cytotoxic Effect (cell lines with percent growth < 0 / total)” value ([6]; 1 dose 10 µM) was 46/60, the “number of cancer cell lines the compound was active against” value ([6]; 1 dose 10 µM) was 52 cell lines and the activity at 10 µM ([6]; Homo sapiens, 48 h, read-out: Mean Growth, %) was -36.5%. For the same molecule, the activity at 10 µM ([6]; Homo sapiens, 48 h, read-out: Range of Growth, %) was -100 to 90.8%, the IC (TGI) ([6]; Homo sapiens, 48 h, read-out: TGI MG_MID60, average over all cell lines) was 3.36 µM and the GI50 ([6]; Homo sapiens, read-out: GI50 MG_MID60) was 1660 nM. The GI50 ([6]; Homo sapiens, read-out: GI50 against all human tumor cell lines) was under 3000 nM, the GI50 ([6]; Homo sapiens, read-out: GI50 against the most sensitive cell lines) was 200 to 940 nM and the CC50 ([6]; Homo sapiens, read-out: LC50 MG_MID60, average over all cell lines) was 17.3 µM. For the same molecule, the GI50 [7] was 1800 nM, the IC (TGI) ([7]; 48 h, read-out: TGI) was 4.07 µM and the CC50 ([7]; read-out: LC50) was 9.2 µM. For the same molecule, the GI50 ([8]; NCI-H23) was 1770 nM, the IC (TGI) ([8]; NCI-H23, 48 h, read-out: TGI) was 3.32 µM and the CC50 ([8]; NCI-H23, read-out: LC50) was 6.24 µM. The GI50 ([9]; M14) was 1690 nM, the IC (TGI) ([9]; M14, 48 h, read-out: TGI) was 3.34 µM and the CC50 ([9]; M14, read-out: LC50) was 6.62 µM. For the same molecule, the GI50 ([10]; HCC 2998) was 790 nM, the IC (TGI) ([10]; HCC 2998, 48 h, read-out: TGI) was 2.14 µM and the CC50 ([10]; HCC 2998, read-out: LC50) was 4.97 µM. It also gave a GI50 ([11]; HOP-92) of 1480 nM, an IC (TGI) ([11]; HOP-92, 48 h, read-out: TGI) of 3.21 µM and a CC50 ([11]; HOP-92, read-out: LC50) of 6.96 µM. It also gave a GI50 ([12]; Homo sapiens, MDA-MB-435) of 1780 nM, an IC (TGI) ([12]; Homo sapiens, MDA-MB-435, 48 h, read-out: TGI) of 3.2 µM and a CC50 ([12]; Homo sapiens, MDA-MB-435, read-out: LC50 (the source's name)) of 5.76 µM. The “Growth % of the Most Sensitive Cell Lines” value ([12]; MDA-MB-435, 1 dose 10 µM) was −96.77%, the GI50 ([13]; HCT-15) was 1530 nM and the IC (TGI) ([13]; HCT-15, 48 h, read-out: TGI) was 2.92 µM. It also gave a CC50 ([13]; HCT-15, read-out: LC50) of 5.56 µM, a GI50 ([14]; K562) of 1800 nM and an IC (TGI) ([14]; K562, 48 h, read-out: TGI) of 5.04 µM. The CC50 ([14]; K562, read-out: LC50) was over 100 µM, the GI50 [15] was 1770 nM and the IC (TGI) ([15]; 48 h, read-out: TGI) was 3.27 µM. For the same molecule, the CC50 ([15]; read-out: LC50) was 6.02 µM, the GI50 [16] was 1640 nM and the IC (TGI) ([16]; 48 h, read-out: TGI) was 3.15 µM. It also gave a CC50 ([16]; read-out: LC50) of 6.03 µM, a GI50 ([17]; OVCAR-8) of 2130 nM and an IC (TGI) ([17]; OVCAR-8, 48 h, read-out: TGI) of 4.61 µM. The CC50 ([17]; OVCAR-8, read-out: LC50) was 10 µM, the GI50 ([18]; OVCAR-5) was 1710 nM and the IC (TGI) ([18]; OVCAR-5, 48 h, read-out: TGI) was 3.06 µM. The CC50 ([18]; OVCAR-5, read-out: LC50) was 5.57 µM, the IC (TGI) ([19]; 48 h, read-out: TGI MG_MID) was 4.52 µM and the GI50 ([19]; read-out: GI50 MG_MID) was 1820 nM. The CC50 ([19]; read-out: LC50 MG_MID) was over 100 µM, the IC (TGI) ([20]; 48 h) was 2.7 µM and the activity at 10 µM ([20]; 48 h, 1 dose 10 µM, read-out: Growth % of the Most Sensitive Cell Lines) was -100%. It also gave a GI50 ([20]; read-out: GI50) of 1370 nM, a CC50 ([20]; read-out: LC50 (the source's name)) of 5.31 µM and a GI50 ([21]; U-251) of 1640 nM. The IC (TGI) ([21]; U-251, 48 h, read-out: TGI) was 3.32 µM, the CC50 ([21]; U-251, read-out: LC50) was 6.72 µM and the GI50 ([22]; UACC-257) was 1820 nM. It also gave an IC (TGI) ([22]; UACC-257, 48 h, read-out: TGI) of 3.65 µM, a CC50 ([22]; UACC-257, read-out: LC50) of 7.14 µM and a GI50 [23] of 1460 nM. It also gave an IC (TGI) ([23]; 48 h, read-out: TGI) of 2.91 µM, a CC50 ([23]; read-out: LC50) of 5.82 µM and a GI50 ([24]; SF-539) of 1730 nM. It also gave an IC (TGI) ([24]; SF-539, 48 h, read-out: TGI) of 3.13 µM, a CC50 ([24]; SF-539, read-out: LC50) of 5.67 µM and a GI50 ([25]; SK-MEL-28) of 1820 nM. For the same molecule, the IC (TGI) ([25]; SK-MEL-28, 48 h, read-out: TGI) was 3.25 µM, the CC50 ([25]; SK-MEL-28, read-out: LC50) was 5.8 µM and the GI50 ([26]; SK-OV-3) was 1720 nM. For the same molecule, the IC (TGI) ([26]; SK-OV-3, 48 h, read-out: TGI) was 3.17 µM and the CC50 ([26]; SK-OV-3, read-out: LC50) was 5.85 µM.
